Reference: ChEMBL document CHEMBL5442219

Columns and labels:
Conditions in all cases: Compound concentration 10 µM
[1] = target: 5-hydroxytryptamine receptor 6 (Homo sapiens) (UniProt P50406)
Description: PDSP Primary Binding target: HTR6 - Compounds are tested at 10 uM concentration, plate are incubated at room temperature in the dark for 90 minutes. Reaction are stopped by vacuum filtration onto 0.3% polyethyleneimine soaked filter mats using Filtermate harvester. Scintilation cocktail is then melted onto microwave-dried filters on a hot plate and the radio activity is counted in Microbia counter.

[2] = target: Mu-type opioid receptor (Homo sapiens) (UniProt P35372)
Description: PDSP Primary Binding target: OPRM1 - Compounds are tested at 10 uM concentration, plate are incubated at room temperature in the dark for 90 minutes. Reaction are stopped by vacuum filtration onto 0.3% polyethyleneimine soaked filter mats using Filtermate harvester. Scintilation cocktail is then melted onto microwave-dried filters on a hot plate and the radio activity is counted in Microbia counter.

[3] = target: Delta-type opioid receptor (Homo sapiens) (UniProt P41143)
Description: PDSP Primary Binding target: OPRD1 - Compounds are tested at 10 uM concentration, plate are incubated at room temperature in the dark for 90 minutes. Reaction are stopped by vacuum filtration onto 0.3% polyethyleneimine soaked filter mats using Filtermate harvester. Scintilation cocktail is then melted onto microwave-dried filters on a hot plate and the radio activity is counted in Microbia counter.

[4] = target: D(1B) dopamine receptor (Homo sapiens) (UniProt P21918)
Description: PDSP Primary Binding target: DRD5 - Compounds are tested at 10 uM concentration, plate are incubated at room temperature in the dark for 90 minutes. Reaction are stopped by vacuum filtration onto 0.3% polyethyleneimine soaked filter mats using Filtermate harvester. Scintilation cocktail is then melted onto microwave-dried filters on a hot plate and the radio activity is counted in Microbia counter.

[5] = target: Sodium-dependent dopamine transporter (Homo sapiens) (UniProt Q01959)
Description: PDSP Primary Binding target: SLC6A3 - Compounds are tested at 10 uM concentration, plate are incubated at room temperature in the dark for 90 minutes. Reaction are stopped by vacuum filtration onto 0.3% polyethyleneimine soaked filter mats using Filtermate harvester. Scintilation cocktail is then melted onto microwave-dried filters on a hot plate and the radio activity is counted in Microbia counter.

[6] = target: Sigma intracellular receptor 2 (Homo sapiens) (UniProt Q5BJF2)
Description: PDSP Primary Binding target: TMEM97 - Compounds are tested at 10 uM concentration, plate are incubated at room temperature in the dark for 90 minutes. Reaction are stopped by vacuum filtration onto 0.3% polyethyleneimine soaked filter mats using Filtermate harvester. Scintilation cocktail is then melted onto microwave-dried filters on a hot plate and the radio activity is counted in Microbia counter.

[7] = target: T1, Alpha-2C adrenergic receptor (Homo sapiens) (UniProt P18825)
T1 sequence (whole entry): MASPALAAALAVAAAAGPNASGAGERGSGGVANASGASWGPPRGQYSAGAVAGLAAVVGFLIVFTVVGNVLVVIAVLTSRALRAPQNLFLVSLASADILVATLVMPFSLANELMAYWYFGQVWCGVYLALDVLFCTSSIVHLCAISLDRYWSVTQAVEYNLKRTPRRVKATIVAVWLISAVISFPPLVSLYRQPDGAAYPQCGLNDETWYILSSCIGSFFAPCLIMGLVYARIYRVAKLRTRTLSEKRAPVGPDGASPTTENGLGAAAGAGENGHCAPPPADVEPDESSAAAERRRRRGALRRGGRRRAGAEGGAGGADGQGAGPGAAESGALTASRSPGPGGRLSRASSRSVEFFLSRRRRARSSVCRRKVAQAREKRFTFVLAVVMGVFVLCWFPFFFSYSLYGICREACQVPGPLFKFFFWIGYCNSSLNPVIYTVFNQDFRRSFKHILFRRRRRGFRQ
Description: PDSP Primary Binding target: ADRA2C - Compounds are tested at 10 uM concentration, plate are incubated at room temperature in the dark for 90 minutes. Reaction are stopped by vacuum filtration onto 0.3% polyethyleneimine soaked filter mats using Filtermate harvester. Scintilation cocktail is then melted onto microwave-dried filters on a hot plate and the radio activity is counted in Microbia counter.

[8] = target: D(1A) dopamine receptor (Homo sapiens) (UniProt P21728)
Description: PDSP Primary Binding target: DRD1 - Compounds are tested at 10 uM concentration, plate are incubated at room temperature in the dark for 90 minutes. Reaction are stopped by vacuum filtration onto 0.3% polyethyleneimine soaked filter mats using Filtermate harvester. Scintilation cocktail is then melted onto microwave-dried filters on a hot plate and the radio activity is counted in Microbia counter.

[9] = target: Sodium-dependent noradrenaline transporter (Homo sapiens) (UniProt P23975)
Description: PDSP Primary Binding target: SLC6A2 - Compounds are tested at 10 uM concentration, plate are incubated at room temperature in the dark for 90 minutes. Reaction are stopped by vacuum filtration onto 0.3% polyethyleneimine soaked filter mats using Filtermate harvester. Scintilation cocktail is then melted onto microwave-dried filters on a hot plate and the radio activity is counted in Microbia counter.

[10] = target: 5-hydroxytryptamine receptor 7 (Homo sapiens) (UniProt P34969)
Description: PDSP Primary Binding target: HTR7 - Compounds are tested at 10 uM concentration, plate are incubated at room temperature in the dark for 90 minutes. Reaction are stopped by vacuum filtration onto 0.3% polyethyleneimine soaked filter mats using Filtermate harvester. Scintilation cocktail is then melted onto microwave-dried filters on a hot plate and the radio activity is counted in Microbia counter.

[11] = target: T2, Muscarinic acetylcholine receptor M4 (Homo sapiens) (UniProt P08173)
T2 sequence (whole entry): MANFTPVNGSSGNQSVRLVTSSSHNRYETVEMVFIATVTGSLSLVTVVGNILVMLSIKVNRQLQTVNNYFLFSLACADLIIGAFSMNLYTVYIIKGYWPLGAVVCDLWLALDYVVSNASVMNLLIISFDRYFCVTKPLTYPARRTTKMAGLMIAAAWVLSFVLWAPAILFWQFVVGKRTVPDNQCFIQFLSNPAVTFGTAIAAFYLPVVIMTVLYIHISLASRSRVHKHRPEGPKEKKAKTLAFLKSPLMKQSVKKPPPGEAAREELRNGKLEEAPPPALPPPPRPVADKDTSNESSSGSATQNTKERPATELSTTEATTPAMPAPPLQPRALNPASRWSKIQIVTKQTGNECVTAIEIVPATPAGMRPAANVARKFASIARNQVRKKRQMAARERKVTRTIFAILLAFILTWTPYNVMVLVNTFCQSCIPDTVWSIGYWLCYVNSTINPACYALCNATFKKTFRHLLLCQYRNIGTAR
Description: PDSP Primary Binding target: CHRM4 - Compounds are tested at 10 uM concentration, plate are incubated at room temperature in the dark for 90 minutes. Reaction are stopped by vacuum filtration onto 0.3% polyethyleneimine soaked filter mats using Filtermate harvester. Scintilation cocktail is then melted onto microwave-dried filters on a hot plate and the radio activity is counted in Microbia counter.

[12] = target: 5-hydroxytryptamine receptor 1D (Homo sapiens) (UniProt P28221)
Description: PDSP Primary Binding target: HTR1D - Compounds are tested at 10 uM concentration, plate are incubated at room temperature in the dark for 90 minutes. Reaction are stopped by vacuum filtration onto 0.3% polyethyleneimine soaked filter mats using Filtermate harvester. Scintilation cocktail is then melted onto microwave-dried filters on a hot plate and the radio activity is counted in Microbia counter.

[13] = target: Beta-2 adrenergic receptor (Homo sapiens) (UniProt P07550)
Description: PDSP Primary Binding target: ADRB2 - Compounds are tested at 10 uM concentration, plate are incubated at room temperature in the dark for 90 minutes. Reaction are stopped by vacuum filtration onto 0.3% polyethyleneimine soaked filter mats using Filtermate harvester. Scintilation cocktail is then melted onto microwave-dried filters on a hot plate and the radio activity is counted in Microbia counter.

[14] = target: 5-hydroxytryptamine receptor 2A (Homo sapiens) (UniProt P28223)
Description: PDSP Primary Binding target: HTR2A - Compounds are tested at 10 uM concentration, plate are incubated at room temperature in the dark for 90 minutes. Reaction are stopped by vacuum filtration onto 0.3% polyethyleneimine soaked filter mats using Filtermate harvester. Scintilation cocktail is then melted onto microwave-dried filters on a hot plate and the radio activity is counted in Microbia counter.

[15] = target: T3, Muscarinic acetylcholine receptor M1 (Homo sapiens) (UniProt P11229)
T3 sequence (whole entry): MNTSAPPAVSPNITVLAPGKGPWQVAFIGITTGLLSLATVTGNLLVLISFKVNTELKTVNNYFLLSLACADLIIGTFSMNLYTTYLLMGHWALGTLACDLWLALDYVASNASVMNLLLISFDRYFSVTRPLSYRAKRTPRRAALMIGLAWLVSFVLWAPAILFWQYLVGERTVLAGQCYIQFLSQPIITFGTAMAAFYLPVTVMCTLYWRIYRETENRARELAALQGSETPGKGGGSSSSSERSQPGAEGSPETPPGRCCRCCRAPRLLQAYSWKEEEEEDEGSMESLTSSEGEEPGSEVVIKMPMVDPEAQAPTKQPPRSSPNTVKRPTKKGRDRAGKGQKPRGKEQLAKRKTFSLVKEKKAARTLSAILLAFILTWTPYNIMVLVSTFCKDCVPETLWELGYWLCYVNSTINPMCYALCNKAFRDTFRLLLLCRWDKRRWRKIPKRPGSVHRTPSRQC
Description: PDSP Primary Binding target: CHRM1 - Compounds are tested at 10 uM concentration, plate are incubated at room temperature in the dark for 90 minutes. Reaction are stopped by vacuum filtration onto 0.3% polyethyleneimine soaked filter mats using Filtermate harvester. Scintilation cocktail is then melted onto microwave-dried filters on a hot plate and the radio activity is counted in Microbia counter.

[16] = target: T4, Alpha-1B adrenergic receptor (Homo sapiens) (UniProt P35368)
T4 sequence (whole entry): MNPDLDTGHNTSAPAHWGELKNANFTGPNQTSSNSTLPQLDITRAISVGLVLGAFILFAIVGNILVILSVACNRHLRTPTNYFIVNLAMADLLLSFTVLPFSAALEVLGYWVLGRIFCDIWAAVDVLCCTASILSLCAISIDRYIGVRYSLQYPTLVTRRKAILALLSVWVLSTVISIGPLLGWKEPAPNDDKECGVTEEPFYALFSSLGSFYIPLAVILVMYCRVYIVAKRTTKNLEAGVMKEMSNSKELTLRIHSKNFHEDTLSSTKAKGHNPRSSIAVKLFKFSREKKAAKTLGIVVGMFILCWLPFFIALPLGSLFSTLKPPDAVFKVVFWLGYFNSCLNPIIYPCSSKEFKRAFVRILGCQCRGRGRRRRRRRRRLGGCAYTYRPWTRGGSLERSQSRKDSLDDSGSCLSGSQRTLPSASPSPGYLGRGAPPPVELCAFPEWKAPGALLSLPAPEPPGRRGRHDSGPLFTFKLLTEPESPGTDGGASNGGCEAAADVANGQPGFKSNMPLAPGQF
Description: PDSP Primary Binding target: ADRA1B - Compounds are tested at 10 uM concentration, plate are incubated at room temperature in the dark for 90 minutes. Reaction are stopped by vacuum filtration onto 0.3% polyethyleneimine soaked filter mats using Filtermate harvester. Scintilation cocktail is then melted onto microwave-dried filters on a hot plate and the radio activity is counted in Microbia counter.

[17] = target: Beta-1 adrenergic receptor (Homo sapiens) (UniProt P08588)
Sequence of Beta-1 adrenergic receptor (Homo sapiens) (P08588 whole entry, looked up): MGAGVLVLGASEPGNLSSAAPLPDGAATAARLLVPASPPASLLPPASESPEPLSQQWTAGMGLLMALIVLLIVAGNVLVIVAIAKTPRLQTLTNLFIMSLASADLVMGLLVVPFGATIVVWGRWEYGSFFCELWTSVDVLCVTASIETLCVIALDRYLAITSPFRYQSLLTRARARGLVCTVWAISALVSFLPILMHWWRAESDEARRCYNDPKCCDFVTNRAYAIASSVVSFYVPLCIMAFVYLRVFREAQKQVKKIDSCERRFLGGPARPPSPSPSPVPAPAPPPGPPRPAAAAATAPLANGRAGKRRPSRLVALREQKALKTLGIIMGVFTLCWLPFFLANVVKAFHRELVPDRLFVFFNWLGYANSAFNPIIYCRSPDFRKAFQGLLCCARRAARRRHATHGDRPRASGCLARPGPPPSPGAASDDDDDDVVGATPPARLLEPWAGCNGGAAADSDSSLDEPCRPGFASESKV
Description: PDSP Primary Binding target: ADRB1 - Compounds are tested at 10 uM concentration, plate are incubated at room temperature in the dark for 90 minutes. Reaction are stopped by vacuum filtration onto 0.3% polyethyleneimine soaked filter mats using Filtermate harvester. Scintilation cocktail is then melted onto microwave-dried filters on a hot plate and the radio activity is counted in Microbia counter.

Sequence of Delta-type opioid receptor (Homo sapiens) (P41143 whole entry): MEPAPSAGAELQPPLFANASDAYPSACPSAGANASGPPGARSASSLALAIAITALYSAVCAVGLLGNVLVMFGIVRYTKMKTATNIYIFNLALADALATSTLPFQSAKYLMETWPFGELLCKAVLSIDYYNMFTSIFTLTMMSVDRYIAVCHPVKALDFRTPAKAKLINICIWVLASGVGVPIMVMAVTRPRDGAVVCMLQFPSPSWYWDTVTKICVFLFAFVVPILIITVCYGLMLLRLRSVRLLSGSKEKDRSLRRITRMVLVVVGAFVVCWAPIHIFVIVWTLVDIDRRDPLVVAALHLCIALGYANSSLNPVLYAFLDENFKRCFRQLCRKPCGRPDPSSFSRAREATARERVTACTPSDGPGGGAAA
Sequence of Mu-type opioid receptor (Homo sapiens) (P35372 whole entry): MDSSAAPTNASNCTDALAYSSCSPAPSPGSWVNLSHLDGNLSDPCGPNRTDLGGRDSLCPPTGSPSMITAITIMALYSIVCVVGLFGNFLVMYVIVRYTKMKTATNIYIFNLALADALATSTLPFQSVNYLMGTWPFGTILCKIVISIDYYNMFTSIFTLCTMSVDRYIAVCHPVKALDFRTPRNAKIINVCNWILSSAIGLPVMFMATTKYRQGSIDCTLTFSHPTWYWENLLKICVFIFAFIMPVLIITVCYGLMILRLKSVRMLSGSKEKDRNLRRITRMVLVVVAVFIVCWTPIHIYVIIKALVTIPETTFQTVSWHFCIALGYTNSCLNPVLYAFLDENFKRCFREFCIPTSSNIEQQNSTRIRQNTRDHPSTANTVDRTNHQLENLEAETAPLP
Sequence of Sodium-dependent noradrenaline transporter (Homo sapiens) (P23975 whole entry): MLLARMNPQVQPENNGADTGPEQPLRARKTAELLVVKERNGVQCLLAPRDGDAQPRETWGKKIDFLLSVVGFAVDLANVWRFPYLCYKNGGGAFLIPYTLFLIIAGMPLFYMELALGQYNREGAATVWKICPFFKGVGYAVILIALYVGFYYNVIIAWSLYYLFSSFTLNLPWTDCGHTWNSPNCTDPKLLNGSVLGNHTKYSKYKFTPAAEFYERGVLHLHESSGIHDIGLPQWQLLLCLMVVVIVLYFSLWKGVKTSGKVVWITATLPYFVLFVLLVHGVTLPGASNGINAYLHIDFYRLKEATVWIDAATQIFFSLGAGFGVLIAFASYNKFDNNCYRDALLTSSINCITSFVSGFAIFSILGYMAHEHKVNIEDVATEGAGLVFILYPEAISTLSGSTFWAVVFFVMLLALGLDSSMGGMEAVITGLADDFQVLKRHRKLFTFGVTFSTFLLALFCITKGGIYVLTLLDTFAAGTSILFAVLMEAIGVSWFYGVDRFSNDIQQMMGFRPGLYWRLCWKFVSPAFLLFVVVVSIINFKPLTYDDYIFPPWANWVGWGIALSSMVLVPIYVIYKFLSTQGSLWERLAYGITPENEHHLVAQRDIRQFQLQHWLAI
Sequence of 5-hydroxytryptamine receptor 6 (Homo sapiens) (P50406 whole entry): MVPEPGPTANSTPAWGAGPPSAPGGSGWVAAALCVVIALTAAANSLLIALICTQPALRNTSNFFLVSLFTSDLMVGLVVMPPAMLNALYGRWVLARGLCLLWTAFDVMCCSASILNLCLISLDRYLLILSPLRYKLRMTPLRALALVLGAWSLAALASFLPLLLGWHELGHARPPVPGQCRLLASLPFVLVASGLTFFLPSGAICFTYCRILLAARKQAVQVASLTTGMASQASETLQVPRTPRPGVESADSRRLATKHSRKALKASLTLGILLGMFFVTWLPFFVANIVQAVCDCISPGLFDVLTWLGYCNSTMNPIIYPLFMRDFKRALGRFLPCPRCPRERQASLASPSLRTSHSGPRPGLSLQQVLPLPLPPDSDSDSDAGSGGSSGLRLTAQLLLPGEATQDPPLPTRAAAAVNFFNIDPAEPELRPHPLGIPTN
Sequence of Sodium-dependent dopamine transporter (Homo sapiens) (Q01959 whole entry): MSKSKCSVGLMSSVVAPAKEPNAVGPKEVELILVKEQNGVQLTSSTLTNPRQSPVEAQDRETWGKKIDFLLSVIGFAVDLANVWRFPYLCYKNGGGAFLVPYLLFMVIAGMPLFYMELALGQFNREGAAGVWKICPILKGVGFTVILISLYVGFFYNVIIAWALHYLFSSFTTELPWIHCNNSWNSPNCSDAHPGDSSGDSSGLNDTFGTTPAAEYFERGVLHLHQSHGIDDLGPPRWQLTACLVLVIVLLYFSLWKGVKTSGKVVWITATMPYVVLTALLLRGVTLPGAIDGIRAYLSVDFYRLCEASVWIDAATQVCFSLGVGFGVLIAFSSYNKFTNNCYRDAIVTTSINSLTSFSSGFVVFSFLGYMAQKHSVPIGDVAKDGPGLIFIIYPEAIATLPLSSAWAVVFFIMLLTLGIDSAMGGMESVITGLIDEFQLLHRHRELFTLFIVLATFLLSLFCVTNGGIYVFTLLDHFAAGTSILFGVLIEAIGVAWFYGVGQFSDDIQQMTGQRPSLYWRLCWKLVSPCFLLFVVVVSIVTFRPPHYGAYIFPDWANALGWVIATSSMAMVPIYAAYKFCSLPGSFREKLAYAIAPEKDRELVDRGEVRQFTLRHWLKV
Sequence of Beta-2 adrenergic receptor (Homo sapiens) (P07550 whole entry, looked up): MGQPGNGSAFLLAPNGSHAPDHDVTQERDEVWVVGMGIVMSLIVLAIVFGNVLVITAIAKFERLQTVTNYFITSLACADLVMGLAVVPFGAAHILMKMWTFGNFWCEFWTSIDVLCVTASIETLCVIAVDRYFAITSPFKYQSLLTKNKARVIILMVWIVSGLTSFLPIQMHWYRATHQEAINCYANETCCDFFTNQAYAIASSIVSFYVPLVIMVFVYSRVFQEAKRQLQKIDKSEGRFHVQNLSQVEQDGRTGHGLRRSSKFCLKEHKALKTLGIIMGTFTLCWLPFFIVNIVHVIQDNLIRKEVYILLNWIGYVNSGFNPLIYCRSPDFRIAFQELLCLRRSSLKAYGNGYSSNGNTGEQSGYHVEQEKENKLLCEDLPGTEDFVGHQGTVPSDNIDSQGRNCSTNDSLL
Sequence of 5-hydroxytryptamine receptor 7 (Homo sapiens) (P34969 whole entry): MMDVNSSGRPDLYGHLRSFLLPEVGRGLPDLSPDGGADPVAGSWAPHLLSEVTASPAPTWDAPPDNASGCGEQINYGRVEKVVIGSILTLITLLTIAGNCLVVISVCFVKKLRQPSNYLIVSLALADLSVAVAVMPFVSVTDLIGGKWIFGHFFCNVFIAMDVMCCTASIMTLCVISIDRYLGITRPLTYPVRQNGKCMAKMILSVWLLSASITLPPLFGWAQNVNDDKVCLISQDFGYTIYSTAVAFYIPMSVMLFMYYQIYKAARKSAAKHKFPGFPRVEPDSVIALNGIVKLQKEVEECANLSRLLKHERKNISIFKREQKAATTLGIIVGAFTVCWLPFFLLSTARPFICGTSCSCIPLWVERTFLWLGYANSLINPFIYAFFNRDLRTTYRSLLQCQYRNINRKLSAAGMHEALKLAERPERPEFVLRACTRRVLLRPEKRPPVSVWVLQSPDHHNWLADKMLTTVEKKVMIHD
Sequence of 5-hydroxytryptamine receptor 2A (Homo sapiens) (P28223 whole entry): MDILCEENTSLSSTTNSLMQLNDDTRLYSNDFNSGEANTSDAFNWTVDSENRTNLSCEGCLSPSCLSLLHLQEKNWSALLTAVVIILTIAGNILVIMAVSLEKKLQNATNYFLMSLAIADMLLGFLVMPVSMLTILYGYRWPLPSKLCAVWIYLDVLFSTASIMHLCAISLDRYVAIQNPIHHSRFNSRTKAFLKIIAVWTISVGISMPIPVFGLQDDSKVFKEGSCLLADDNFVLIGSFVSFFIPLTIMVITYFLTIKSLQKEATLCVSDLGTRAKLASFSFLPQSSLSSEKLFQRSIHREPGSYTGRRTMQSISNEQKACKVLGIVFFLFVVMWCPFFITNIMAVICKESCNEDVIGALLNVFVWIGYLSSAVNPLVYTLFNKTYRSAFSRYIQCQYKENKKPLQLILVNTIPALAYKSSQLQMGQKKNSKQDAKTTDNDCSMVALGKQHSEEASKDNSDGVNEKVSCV
Sequence of D(1A) dopamine receptor (Homo sapiens) (P21728 whole entry): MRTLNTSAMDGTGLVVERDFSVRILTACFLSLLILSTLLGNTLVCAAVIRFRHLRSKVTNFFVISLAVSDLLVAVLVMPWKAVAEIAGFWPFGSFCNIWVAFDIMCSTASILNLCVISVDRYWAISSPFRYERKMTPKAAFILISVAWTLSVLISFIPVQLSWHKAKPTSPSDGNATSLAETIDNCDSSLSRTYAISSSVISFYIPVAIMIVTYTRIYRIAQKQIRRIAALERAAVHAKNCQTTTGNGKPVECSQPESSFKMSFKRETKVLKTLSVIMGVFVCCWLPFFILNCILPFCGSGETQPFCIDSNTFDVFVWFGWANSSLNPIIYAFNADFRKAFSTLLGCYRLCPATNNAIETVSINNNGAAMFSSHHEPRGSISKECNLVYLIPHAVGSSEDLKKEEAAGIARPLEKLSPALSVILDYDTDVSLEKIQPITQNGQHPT
Sequence of Sigma intracellular receptor 2 (Homo sapiens) (Q5BJF2 whole entry): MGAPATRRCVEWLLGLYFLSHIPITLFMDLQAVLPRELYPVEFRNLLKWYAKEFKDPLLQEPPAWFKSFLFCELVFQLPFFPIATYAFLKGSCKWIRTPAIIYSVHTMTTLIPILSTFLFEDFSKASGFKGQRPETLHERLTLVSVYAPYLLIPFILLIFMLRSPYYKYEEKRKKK

SMILES	inhibition [1] [%]	inhibition [2] [%]	inhibition [3] [%]	inhibition [4] [%]	inhibition [5] [%]	inhibition [6] [%]	inhibition [7] [%]	inhibition [8] [%]	inhibition [9] [%]	inhibition [10] [%]	inhibition [11] [%]	inhibition [12] [%]	inhibition [13] [%]	inhibition [14] [%]	inhibition [15] [%]	inhibition [16] [%]	inhibition [17] [%]
CC(C)NCC(O)COc1cccc2ccccc12 (stereo unspecified)	74.2	17.4	7.31	10.2	38.4	90	8.7	4.93	46.2	13.3	-3.37	87.2					
C[C@@H](N)Cc1c[nH]cn1	2.58			24.8	3.36	20.2	10.9	14.2	-7.81	3.45		6.42	10.2	-2.41	2.87		
CNC[C@H](O)c1cccc(O)c1	9.39	2.89	13.8			24.9	32.8	11.1	8.86	75.5	6.21	48.1	-1.97	25.3	7.7	10.8	
O=S1(=O)c2cccc3cccc(c23)N1CCCN1CCN(c2ccc(F)cc2)CC1	52.9	43	8.66	-1.71	75.8	96.9	98.7	59.8	65.1	90.5	1.66		21.3	103	12.9	98.1	8.94
N=C(N)SCCc1c[nH]cn1	-1.7	-3.13	-6.86	3.23	-0.41	13.8	20.8		11.5	19.2			6.81	-6.33		-9.87	3.8
CN1CC(=O)N=C1NC(=O)Nc1cccc(Cl)c1	-0.6	5.37	-3.44	18.3	0.92	0.02	-3.83	14.5	9.52	0.17	-2.92	4.68	-8.89	1.19		-6.38	
CCN(CC)CCCCC1CCN(CC(=O)N2c3ccccc3C(=O)Nc3cccnc32)CC1	-7.42	10.4	24.6	82.5	28.1	82.1	-6.76	102	15.3		95.5	33.2	5.55	9.83	89.1	-0.95	4.03
CC(C)NCC(O)COc1ccc(CCOCC2CC2)cc1 (stereo unspecified)	-5.1	3.09	3.69	6.71	27.9	76.2	2.92	1.75	45.1		22.5	5.07		8.23	0.88	19.5	
CCCn1c(=O)c2[nH]c(-c3cnn(Cc4cccc(C(F)(F)F)c4)c3)nc2n(CC)c1=O		-6.55	-6.13	-3.39	45.8	18	-0.44	5.66	25.1			10.2	-2.75		-6.12	-5.87	-6.47
C=CCN1C[C@H](C)N([C@H](c2ccc(C(=O)N(CC)CC)cc2)c2cccc(O)c2)C[C@H]1C	5.03	98.5	99.9		26.9	46.7	25.4	2.02	13		-5.52	31.4	3.05	2.09	4.09	10.2	
CC(C)(C)NC[C@H](O)COc1nsnc1N1CCOCC1		-1.47		6.52	31.4	10.5	1.66				-8.25	19.4				-6.31	
COc1cc2c(CCNC(C)=O)c[nH]c2cc1Cl		-1.77	-3.58		14.1	-5.25	-1.89	5.8		-0.31		45.4	3.89	-6.6	-4.88		
Cc1cccc(NC(=O)N[C@@H]2N=C(c3ccccc3)c3ccccc3N(C)C2=O)c1	6.3	5.79	8.95	0.34	44.1	15.4	12.3		1.83	3.26	-5.23	24.6	-4.38	53.4			
Oc1ccc2c3c1O[C@H]1c4[nH]c5c(c4C[C@@]4(O)[C@@H](C2)N(CC2CC2)CC[C@]314)C[C@@]1(O)[C@H]2Cc3ccc(O)c4c3[C@@]1(CCN2CC1CC1)[C@H]5O4	11.4	80.6	93.5	-8.61	-4.44	30.2	15.5	33.5	12.7		-2.79		-6.53	18.3	4.47	-1.68	1.77
